2 compounds from patent publication US20100173991A1, “METHOD FOR THE SYNTHESIS OF A-RING AROMATIZED ACETYL MINOCYCLINES” (priority 2007, published 2010) can be followed below.

The subject of assay [1] is Astroglia cells, non neoplastic embryonal astrocyte cell line of the rat, damaged by H2O2. In kind it is cell-based. Conditions: 30 min pre-incubation with 1.0, 5.0 or 25.0 μM, then 1.0 or 3.0 mM H2O2 for 2 hours; microscopic assessment of cell shape and mitochondria. The protocol:
The test of the cell-protecting properties of the substances produced in the inventive method was carried out, exemplarily for a pure form of pentaacetyl cyclin of Formula II, by means of an astrocyte damaging model. This model is used for the examination of neurodegenerative diseases caused by oxidative stress or for the test of cell-protecting substances that can avoid or reduce such damage. In the exemplary model astrocytes are damaged by hydrogen peroxide (H2O2) and afterwards the functionality and morphology of the cells and mitochondria are microscopically assessed. An overproduction of H2O2 as reactive oxygen species (ROS) is considered to be, amongst others, the cause for many neurodegenerative processes and diseases in the CNS, such as stroke, Alzheimer's disease Parkinson's disease, post-traumatic injuries of the brain and spinal cord. Astonishingly, already much lower doses of pentaacetyl cyclin of Formula II could considerably reduce the damage of the mitochondria compared to the comparative substance minocycline hydrochloride (Example 3 and FIG. 4).
Astroglia cells, i.e. non neoplastic embryonal astrocyte cell line of the rat [Chamaon, K., Kirches, E., Kanakis, D., Braeuninger, S., Dietzmann, K., and Mawrin, C. (2005). […] A Zeiss Axiophot fluorescence microscope with CCD camera (AxioCam MRc) was used for the visual inspection and documentation. […]

Another assay deals with E. coli C 600 hfc strain. The experiment in a line: Antibiotic effect in the agar diffusion test. Type of assay: cell-based. As to conditions: filter paper sheets soaked with DMSO solutions 100 μM to 2.5 mM; LB agar, 37° C., 24 hours. The protocol: The test of the antibiotic effect of the pentaacetyl cyclin obtained in the inventive method was performed by using an E. coli strain (Embodiment 4). […] The liquid culture (cultivated in LB-Lennox-L-Broth-Base for 24 hours) of an E. coli suspension (150 μl) of the C 600 hfc strain was evenly distributed on LB agar (Lennox-L-Agar, Gibco) by means of a sterile Drigalski spatula. Afterwards, sterile filter paper sheets (diameter 5.3 mm) that have been soaked with sterile DMSO solutions and different concentrations (100 μM to 2.5 mM) of minocycline hydrochloride or pentaacetyl cyclin (Formula II) were placed on the breeding ground. After the incubation of the agars at 37° C. for 24 hours, the antibiotic activity of the substances was assessed on the basis of the diameters of the inhibiting areolas that become visible due to the missing opacification by bacteria.
On the technique in general: In agar diffusion tests the substance spreads into inoculated agar from a disc or well.

Molecules are shown by their SMILES. Where a name gives a salt, the structure may show the parent alone.

As for `CN(C)c1ccc(O)c2c1C[C@H]1C[C@H]3[C@H](N(C)C)C(O)=C(C(N)=O)C(=O)[C@@]3(O)C(O)=C1C2=O` [minocycline hydrochloride, Minocycline hydrochloride, reference compound], in assay [1], the “concentration showing protective effect against H2O2-induced damage of cells/mitochondria” value amounted to 25 µM.

Regarding `CC(=O)NC(=O)c1c(OC(C)=O)c2c(c(N(C)C)c1OC(C)=O)CC1Cc3c(N(C)C)ccc(OC(C)=O)c3C(=O)C1=C2OC(C)=O` (stereo not drawn) [pentaacetyl cyclin, A-ring aromatized pentaacetyl minocycline], the “concentration showing protective effect against H2O2-induced damage of cells/mitochondria” value in assay [1] was found to be 1.0 µM. Also, the “growth inhibition of E. coli (inhibiting areolas)” value in the assay with E. coli C 600 hfc strain was “does not show any growth inhibition”.
